Legend:
plasma hemostasis = experiment: Partial activated thromboplastin time (PATT) after intravenous administration; assay type: in vivo, rabbit
Procedure: The static parameters of the blood and plasma coagulation (partial activated thromboplastin time, thrombin time, maximum coagulation activity (test for auto coagulation) were determined using the Behnk Electronic coagulometer (Germany). The operating principle of this instrument is based on the fact that the formed blood clot breaks the contacts of the pulse counter in the flask-pin circuit, said pin permanently oscillating in a vertical plane. The moment of formation of the clot is registered by stopping the stop watch hand.
The measurements were effected at a constant temperature of 37° C. maintained by a temperature control unit.

[1] = Morphine abstinence model: indicator enzymes ALT, AST, γ-GTP in blood plasma; conditions: 20.0 mg/kg intramuscularly three times a day; for γ-GTP in blood plasma, Ci: control 6.261 ± 1.80; for ALT in blood plasma, Ci: control 106.76 ± 111.35; for AST in blood plasma, Ci: control 179.881 ± 11.94
Procedure: (§1) The experiments were carried out on rats in series of 7 animals on each compound according to the invention. Non-morphinized animal with not administered with compounds according to the invention were used as a control group. […] Then the rats were decapitated, the blood from somnolent arteries was collected in test tubes with solution EDTA as an anticoagulant, centrifuged at 1500 g for 15 minutes at 4° C.
To estimate possible hepatoprotective action of the compounds according to the invention under conditions of development of an oxidizing stress in the liver cells, effect of these compounds on the most important biochemical blood indexes, in particular, on the content in blood plasma of indicator enzyme of aspartateaminotransferase (AST), alanineaminotransferase (ALT), γ-glutamiletranspeptidase (γ-GTP) was investigated. The content of enzymes was estimated by their catalyzing activity in blood plasma.
The activity of AST, ALT and γ-GTP was determined by means of diagnostic sets DiaSys, Germany.

[2] = Morphine abstinence model: nitrites/nitrates NOX− in blood plasma, liver and brain; assay type: in vivo, rats Wistar; conditions: 20.0 mg/kg intramuscularly; for Nitrites in liver: control 0.260 ± 0.023; for Nitrites in brain: Cortex of cerebrum: control 4.63 ± 0.29; for Nitrites in brain: Mesencephalon: control 5.66 ± 0.19; for Nitrites in brain: Hypothalamus: control 6.57 ± 0.50; for Nitrites in blood plasma: control 18.30 ± 2.14
Procedure: as §1
To estimate the intensity of metabolism of nitrogen oxide in rats, quantitative determination of stable metabolites of nitrogen oxide—nitrites and nitrates NOX^− in the blood plasma, supernatanates of the liver and thymus gland, a study was conducted by a spectrometric method, and in the brain supernatanates by a […] method.
The spectrometric method is based the reaction of nitrites with the Griss reagent (a mixture of 2% solution of sulfanilamide and 0.2% N-(1-naphthyl)ethylene diamine. At the first step the nitrite reacts with sulfanilamide with formation of diazonium salt, and then with the second component to form azo dye with an adsorption maximum at 540 nm. For reduction of nitrates into nitrites, a fermentative method was used with bacterial reductase nitrate (Grisham M. B. et al., 1995). The samples of plasma and supernathant of the liver deproteinizated at 100° C. for 5 minutes incubated for 30 minutes at 37° C. in 50.0 mM of HEPES pH 7.4 in the presence of 0.2 unit/ml of Aspergillus reductase nitrate, 5.0 mkM of FAD and 0.1 mM of NAD-Ph. At the end of the reaction lactate dehydrogenase and pyruvate were added for isolation of NAD-Ph interfering with the Griss reaction. Then the Griss reagent was added and after 10-minute incubation the light absorption of the samples was measured at 540 nm. To amount of NOX^− was calculated using sodium nitrate as a standard.
The fluorometric method is based on calculation of the nitrite level by the intensity fluorescence of 2,3-diaminonaphthotriazole, a product of reaction of 2,3-diaminonaphthalene (DAN) and nitrite in an acidic medium (Misko T. R., Schilling R. J., Salvemini D. et al. “A fluorometric assay for the measurement of nitrite of biological samples”. Anal. Biochem., 1993, v. 214, p. 11-16). The brain supernatants deproteinizated at 100° C. were placed in a nitrite regenerating system containing 0.125 unit/ml of nitrate reductases, 25 mkM NADPh and 25 mkM FAD prepared in a 20-mM Tris-HCl buffer with pH 7.6 and incubated for 30 minutes at 37° C. The lactate dehydrogenase/pyruvate system was used for oxidation of the NADPh. Then 316 mkM of the DAN solution in 0.62 M of hydrochloric acids were added and the mixture was incubated for 10 minutes in darkness.
280 mM of NaOH were added for stabilization of the fluorescence of the formed 2,3-diaminonaphthotriazole. The fluorescence intensity was measured in the spectrofluorimeter Hitachi F-3000 at a wavelength of excitation of 365 nm and an emission of 405 nm. The concentration of NOX^− in the brain was calculated by means of a standard solution of sodium nitrate.

[3] = Chronic toxicity of suppositories: indexes of peripheral blood; assay type: in vivo, rats; conditions: male rats, suppositories rectally; for Basophiles / Juveniles: 1 month/2 months (one value given), control 0
Procedure: The experiments were conducted on inbred rats.
Two doses of preparations used in the experiments: 50 mg/kg and 500 mg/kg. Before the administration, the suppositories were softened by heating in a glass water bath at a temperature of 38-39° C., the soft mass was collected in tuberculin syringe in a volume of 1 ml, a needle with oliva was attached to the syringe, and the preparatory mass was introduced into the rectum of the animal for a depth of 1.5-2.0 cm. The animals of the control group were administered with sterile medical liquid paraffin in a volume corresponding to the volume of the investigated suppository. A complete course of administration of drugs to the animals was two months. A complex of laboratory diagnostic investigations was carried out one month after the beginning of the administration of the preparation to the animal—in a middle of the course (8 animals), two months after ending the course (8 animals) and three months after ending the recovery period of one month (8 animals). The mass of the body of the rats in the first month of administration of the preparation was determined weekly, and then once in two weeks. On the basis of the dynamics of an index of the mass of the animal body, the volume of preparation being administered was corrected taking into account the test dose.

## Nc1cccc2c(=O)[nH][nH]c(=O)c12.[Na] [Compound 15, sodium salt of 5-amino-benzo[d]-3H-pyridazine-1,4-dione]
Plasma hemostasis; 15.0 mg/kg intravenously, after 15 minutes, control 37.0 ± 0.2
  PATT, T: 37.0 ± 0.1 s
Plasma hemostasis; 15.0 mg/kg intravenously, after 30 minutes, control 37.0 ± 0.2
  PATT, T: 37.0 ± 0.2 s
Plasma hemostasis; 15.0 mg/kg intravenously, after 60 minutes, control 37.0 ± 0.2
  PATT, T: 36.9 ± 0.1 s
Plasma hemostasis; 15.0 mg/kg intravenously, after 120 minutes, control 37.0 ± 0.2
  PATT, T: 37.0 ± 0.3 s
Plasma hemostasis; 30.0 mg/kg intravenously, after 15 minutes, control 33.3 ± 0.8
  PATT, T: 32.9 ± 0.8 s
Plasma hemostasis; 30.0 mg/kg intravenously, after 30 minutes, control 33.3 ± 0.8
  PATT, T: 32.1 ± 0.1 s
Plasma hemostasis; 30.0 mg/kg intravenously, after 60 minutes, control 33.3 ± 0.8
  PATT, T: 32.0 ± 0.2 s
Plasma hemostasis; 30.0 mg/kg intravenously, after 120 minutes, control 33.3 ± 0.8
  PATT, T: 32.0 ± 0.1 s
Plasma hemostasis; 60.0 mg/kg intravenously, after 15 minutes, control 32.5 ± 0.3
  PATT, T: 32.2 ± 0.1 s
Plasma hemostasis; 60.0 mg/kg intravenously, after 30 minutes, control 32.5 ± 0.3
  PATT, T: 32.2 ± 0.1 s
Plasma hemostasis; 60.0 mg/kg intravenously, after 60 minutes, control 32.5 ± 0.3
  PATT, T: 32.1 ± 0.2 s
Plasma hemostasis; 60.0 mg/kg intravenously, after 120 minutes, control 32.5 ± 0.3
  PATT, T: 32.2 ± 0.1 s
Plasma hemostasis; doses 15.0, 30.0, 60.0 mg/kg
  effect on the PATT: do not affect the PATT
[1]; Control + compound
  γ-GTP in blood plasma, Ci: 7.03 ± 2.82 mE/l
  ALT in blood plasma, Ci: 113.48 ± 2.39 mE/l
  AST in blood plasma, Ci: 173.46 ± 5.63 mE/l
[1]; control + Morphine + Compound
  γ-GTP in blood plasma, Ci: 10.69 ± 1.84 mE/l
  ALT in blood plasma, Ci: 121.08 ± 5.04 mE/l
  AST in blood plasma, Ci: 195.57 ± 18.68 mE/l
[2]; Control + Compound
  Nitrites in liver: 0.259 ± 0.019 nmol/mg of protein
  Nitrites in brain: Cortex of cerebrum: 4.31 ± 0.37 nmol/mg of protein
  Nitrites in brain: Mesencephalon: 6.65 ± 0.70 nmol/mg of protein
  Nitrites in brain: Hypothalamus: 6.77 ± 0.83 nmol/mg of protein
  Nitrites in blood plasma: 14.39 ± 0.84 mkmol/ml
[2]; Control + Morphine + compound
  Nitrites in liver: 0.285 ± 0.02 nmol/mg of protein
  Nitrites in brain: Cortex of cerebrum: 4.72 ± 0.37 nmol/mg of protein
  Nitrites in brain: Mesencephalon: 5.50 ± 0.43 nmol/mg of protein
  Nitrites in brain: Hypothalamus: 6.57 ± 0.88 nmol/mg of protein
  Nitrites in blood plasma: 13.91 ± 1.91 mkmol/ml
[3]; 50 mg/kg
  Basophiles: 0%
  Juveniles: 0%
[3]; 50 mg/kg, 1 month, control 0.8 ± 0.4
  Stab neutrophil: 1.2 ± 0.5%
[3]; 50 mg/kg, 1 month, control 2.2 ± 0.4
  REE: 1.8 ± 0.4 mm/h
[3]; 50 mg/kg, 1 month, control 2.8%0.3
  Reticulocytes: 2.6 ± 0.2%
[3]; 50 mg/kg, 1 month, control 4.0 + 0.3
  Eosinophiles: 3.2 ± 1.0%
[3]; 50 mg/kg, 1 month, control 5.6 ± 0.1
  Erythrocytes: 5.7 ± 0.2 mln/mm^3
[3]; 50 mg/kg, 1 month, control 10.5 ± 0.2
  Hemoglobin: 10.6 ± 0.2 mmol/L
[3]; 50 mg/kg, 1 month, control 17.4 ± 1.3
  Leukocyte: 14.8 ± 2.0 thousand/mm^3
[3]; 50 mg/kg, 1 month, control 45.9 ± 1.7
  Haematocrite: 47.9 ± 1.4%
[3]; 50 mg/kg, 1 month, control 81.4 ± 1.7
  Average volume of erythrocytes: 84.4 ± 1.5 Mkm^3
[3]; 50 mg/kg, 1 month, control 152 ± 10.2
  Coagulation, time: 140 ± 12.2 s
[3]; 50 mg/kg, 2 months, control 1.4 ± 0.2
  REE: 1.6 ± 0.2 mm/h
[3]; 50 mg/kg, 2 months, control 2.4 ± 0.4
  Stab neutrophil: 0.8 ± 0.5%
[3]; 50 mg/kg, 2 months, control 2.9 ± 0.2
  Reticulocytes: 3.0 ± 0.1%
[3]; 50 mg/kg, 2 months, control 4.4 + 1.2
  Eosinophiles: 3.6 ± 1.2%
[3]; 50 mg/kg, 2 months, control 6.1 ± 0.1
  Erythrocytes: 6.0 ± 0.1 mln/mm^3
[3]; 50 mg/kg, 2 months, control 11.4 ± 0.2
  Hemoglobin: 11.2 ± 0.1 mmol/L
[3]; 50 mg/kg, 2 months, control 19.1 ± 1.9
  Leukocyte: 16.3 ± 1.0 thousand/mm^3
[3]; 50 mg/kg, 2 months, control 45.9 ± 1.8
  Haematocrite: 47.5 ± 1.2%
[3]; 50 mg/kg, 2 months, control 74.6 + 1.9
  Average volume of erythrocytes: 78.6 ± 1.5 Mkm^3
[3]; 50 mg/kg, 2 months, control 316 ± 8
  Coagulation, time: 321 ± 12 s
[3]; 500 mg/kg
  Basophiles: 0%
  Juveniles: 0%
[3]; 500 mg/kg, 1 month, control 0.8 ± 0.4
  Stab neutrophil: 0.8 ± 0.5/0.8 ± 0.5%
[3]; 500 mg/kg, 1 month, control 2.2 ± 0.4
  REE: 2.2 ± 0.4 mm/h
[3]; 500 mg/kg, 1 month, control 2.8%0.3
  Reticulocytes: 3.1 ± 0.2%
[3]; 500 mg/kg, 1 month, control 4.0 + 0.3
  Eosinophiles: 3.0 ± 1.0%
[3]; 500 mg/kg, 1 month, control 5.6 ± 0.1
  Erythrocytes: 5.7 ± 0.1 mln/mm^3
[3]; 500 mg/kg, 1 month, control 10.5 ± 0.2
  Hemoglobin: 10.6 ± 0.2 mmol/L
[3]; 500 mg/kg, 1 month, control 17.4 ± 1.3
  Leukocyte: 17.0 ± 1.4 thousand/mm^3
[3]; 500 mg/kg, 1 month, control 45.9 ± 1.7
  Haematocrite: 47.6 ± 1.3%
[3]; 500 mg/kg, 1 month, control 81.4 ± 1.7
  Average volume of erythrocytes: 82.6 ± 1.1 Mkm^3
[3]; 500 mg/kg, 1 month, control 152 ± 10.2
  Coagulation, time: 151 ± 6.4 s
[3]; 500 mg/kg, 2 months, control 1.4 ± 0.2
  REE: 1.8 ± 0.4 mm/h
[3]; 500 mg/kg, 2 months, control 2.4 ± 0.4
  Stab neutrophil: 0.8 ± 0.5/0.8 ± 0.5%
[3]; 500 mg/kg, 2 months, control 2.9 ± 0.2
  Reticulocytes: 3.3 ± 0.3%
[3]; 500 mg/kg, 2 months, control 4.4 + 1.2
  Eosinophiles: 3.2 ± 1.4%
[3]; 500 mg/kg, 2 months, control 6.1 ± 0.1
  Erythrocytes: 6.7 ± 0.2 mln/mm^3
[3]; 500 mg/kg, 2 months, control 11.4 ± 0.2
  Hemoglobin: 12.5 ± 0.4 mmol/L
[3]; 500 mg/kg, 2 months, control 19.1 ± 1.9
  Leukocyte: 21.1 ± 2.4 thousand/mm^3
[3]; 500 mg/kg, 2 months, control 45.9 ± 1.8
  Haematocrite: 53.9 ± 2.1%
[3]; 500 mg/kg, 2 months, control 74.6 + 1.9
  Average volume of erythrocytes: 80.21 ± 1.2 Mkm^3
[3]; 500 mg/kg, 2 months, control 316 ± 8
  Coagulation, time: 308 ± 16 s
